Test results: patent US20250152535A1, “COMPOSITION FOR PREVENTING OR IMPROVING HEPATIC DYSFUNCTION” (KYOWA HAKKO BIO CO., LTD., priority 2022, published 2025)

Tests used:
ICR mice = test: Carbon tetrachloride (CCl4)-induced hepatic dysfunction model in mice, blood plasma AST and ALT levels; format: in vivo; settings: male ICR mice; 400 mg/kg/day once-daily oral for three days, then CCl4 0.04 mL/kg i.p.; blood 16 hours after CCl4; compared with group 2 (vehicle+CCl4)
Protocol: GSSSG dihydrate prepared by the method described in Patent Literature 1 was crushed in a mortar. To 10 mL of distilled water, the crushed GSSSG dihydrate (200 mg in terms of anhydride) was added and suspended. Then, twice as much sodium hydrogen carbonate as the GSSSG anhydride was added thereto on a molar basis, and the resultant mixture was mixed for 10 minutes. The obtained GSSSG solution was further diluted with distilled water to obtain administration samples 3 and 4. In addition, reduced glutathione (GSH) or oxidized glutathione (GSSG), manufactured by KYOWA HAKKO BIO Co., Ltd., was dissolved in distilled water to obtain each of administration samples 1 and 2.
Four-week-old male ICR mice (Charles River Laboratories Japan, Inc.) were acclimated for 1 week and then subjected to a test at 5 weeks of age. During the test period, the mice were allowed to freely drink water regarding water, allowed to freely ingest a solid feed CE-2 (CLEA Japan, Inc.), and kept at a temperature of 20° C. to 24° C., a humidity of 50% to 60%, and for 12 hours of light-dark cycle. Thereafter, the mice were divided into groups 1 to 6 so that each group included 3 or 4 mice. • Group 1: Normal (vehicle-no symptoms induced) • Group 2: Vehicle+CCl4 • Group 3: GSH 400 mg/kg/day (administration sample 1)+CCl4 • Group 4: GSSG 400 mg/kg/day (administration sample 2)+CCl4 • Group 5: GSSSG 100 mg/kg/day (administration sample 3)+CCl4
Group 6: GSSSG 400 mg/kg/day (administration sample 4)+CCl4
After the group dividing, the vehicle, the administration sample 1, the administration sample 2, the administration sample 3, or the administration sample 4 was subjected to an once-daily forced oral administration at the above-described dose for a total of three consecutive days. After 30 minutes from the final oral administration, CCl4 (0.04 mL/kg) suspended in olive oil was intraperitoneally administered to induce hepatic dysfunction.

HepG2 cells = test: Protective effect against hepatocellular damage by hydrogen peroxide in HepG2 cells, cell survival rate by MTT assay; format: cell-based, human; settings: for Cell survival rate (%): then 0.1 mM hydrogen peroxide for 2 hours, control group = 100; for cell survival rate as compared with the solvent addition group: sample added before 0.1 mM hydrogen peroxide
Protocol: A human hepatoma-derived cell line (HepG2: HB-8065™, Lot number: 70029112) was obtained from American Type Culture Collection, and Dulbecco's Modified Eagle Medium containing 10% FBS (Thermo Fisher Scientific, Inc.) was used as a basal medium. Cells were cultured in an incubator of 37° C. and 5% CO2, and the cells that had been passaged to 16 to 25 generations were subjected to experimentation. The used GSSG and GSSSG were those manufactured by KYOWA HAKKO BIO Co., Ltd.
0.15 mL of a cell suspension obtained by adjusting the initial cell concentration to 2×10^4 cells/mL was seeded in a 96-well plate (Thermo Fisher Scientific, Inc.).
After the culturing for 4 hours from the seeding, GSSSG (for the addition group of the final concentration of 0.05 mM and the addition group of the final concentration of 0.1 mM) was added to the culture medium. In addition, apart from this, a group in which only the solvent of GSSSG (PBS in which sodium hydrogen carbonate was dissolved so that the concentration thereof was 15.8 mM) was added was defined as a solvent addition group. After the culturing for 20 hours from the sample addition, the culture medium was replaced with a culture medium (not containing GSSSG) obtained by adding hydrogen peroxide solution (FUJIFILM Wako Pure Chemical Corporation) to the above-described sample addition group and the solvent addition group so that the final concentration thereof was 0.1 mM, and then hepatocellular damage was induced. The control group was the group in which the same amount of PBS was added to the solvent addition group instead of hydrogen peroxide solution. After the culturing for 2 hours from the addition of hydrogen peroxide solution or PBS, the cell survival rate was measured according to the MTT assay, and the degree of hepatocellular damage was evaluated. For GSSG as well, an experiment was carried out in the same manner as in the GSSSG, except that PBS was used as a solvent.

| Molecule | blood plasma ALT level (ICR mice) | blood plasma AST level (ICR mice) | Cell survival rate (%) (HepG2 cells; sample 0.05 mM for 20 hours) | Cell survival rate (%) (HepG2 cells; sample 0.1 mM for 20 hours) | cell survival rate as compared with the solvent addition group (HepG2 cells) |
| --- | --- | --- | --- | --- | --- |
| N[C@@H](CCC(=O)N[C@@H](CS)C(=O)NCC(=O)O)C(=O)O [GSH, reduced glutathione] | significant suppression | significant suppression | – | – | – |
| N[C@@H](CCC(=O)N[C@@H](CSSSC[C@H](NC(=O)CC[C@H](N)C(=O)O)C(=O)NCC(=O)O)C(=O)NCC(=O)O)C(=O)O [GSSSG, glutathione trisulfide] | tendency of the suppression | tendency of the suppression | 36.9 | 49.7 | improved survival rate |
| oxidized glutathione [GSSG] | significant suppression | significant suppression | 39.4 | 38.4 | significantly decreased |
